Ki data for 44 compounds are collected here from patent publication US10196373B2, “Substituted 2-hydroxy-4-(2-(phenylsulfonamido)acetamido)benzoic acid analogs as inhibitors of STAT protein” (University of Central Florida Research Foundation, Inc., priority 2010, dated 2019).

SMILES strings stand for the structures. Some results are limits rather than exact numbers.

Sequence of STAT3 (P40763 whole entry): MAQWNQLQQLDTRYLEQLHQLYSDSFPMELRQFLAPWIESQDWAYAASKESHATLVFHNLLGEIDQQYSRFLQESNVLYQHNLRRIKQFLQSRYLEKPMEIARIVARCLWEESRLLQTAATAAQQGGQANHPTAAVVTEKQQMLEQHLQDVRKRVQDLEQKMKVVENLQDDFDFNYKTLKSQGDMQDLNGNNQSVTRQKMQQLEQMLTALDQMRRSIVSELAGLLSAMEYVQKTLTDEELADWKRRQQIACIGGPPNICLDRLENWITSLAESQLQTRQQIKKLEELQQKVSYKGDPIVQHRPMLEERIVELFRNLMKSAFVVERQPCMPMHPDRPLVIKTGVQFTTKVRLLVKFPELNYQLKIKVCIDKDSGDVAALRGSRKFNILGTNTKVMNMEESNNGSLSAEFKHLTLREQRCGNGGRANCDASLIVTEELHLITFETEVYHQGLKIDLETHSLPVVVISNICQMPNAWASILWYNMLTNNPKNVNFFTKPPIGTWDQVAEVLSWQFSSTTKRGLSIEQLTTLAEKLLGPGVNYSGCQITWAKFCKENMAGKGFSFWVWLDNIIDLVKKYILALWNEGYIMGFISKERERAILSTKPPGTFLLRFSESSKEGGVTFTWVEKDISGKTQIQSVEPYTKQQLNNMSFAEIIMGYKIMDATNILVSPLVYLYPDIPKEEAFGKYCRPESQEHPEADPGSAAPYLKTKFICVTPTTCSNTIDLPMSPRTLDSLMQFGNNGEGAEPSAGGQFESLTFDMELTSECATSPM

The assay addresses STAT3 (Homo sapiens (Human), UniProt P40763). Put plainly: Fluorescence polarization assay, inhibition of binding to STAT3. The note with it: inhibition of binding to STAT3 in a fluorescence polarization assay; read-out: Ki (FP). The protocol: The fluorescent polarization experiments were performed on an Infinite M1000 (Tecan, Crailsheim, Germany). All assays were performed in the same buffer conditions of 50 mM NaCl, 10 mM Hepes, pH 7.5, 1 mM EDTA, and 2 mM dithiothreitol. Fluorescent-labelled peptides were kept at a final concentration of 10nM in buffered solution. […] of labelled peptides were added to […] of a 300 nM STAT3 protein solution (provided by SignalChem in 50 mM Tris-HCl, pH 7.5, 150 mM NaCl, 0.25 mM DTT, 0.1 mM PMSF, 25% glycerol and stored at −80° C.). Inhibitory molecules were dissolved in pure DMSO and diluted using buffer solution to produce four final concentrations ([…]). 7.5 μL of the inhibitory molecule solution was mixed with the STAT3 protein and labelled peptide solution in black 384-flat well microplates (Coming), and incubated for 15-30 minutes. The M1000 performed a shaking cycle and then read the plates. IC50′s were derived from the output using the curve-fitting software OriginPro 8 (Northampton, MA). The FP data was modelled by the following equation:
[formula] where X was the concentration of inhibitor and ρwas the corresponding fluorescence at that concentration. The free parameter was half the maximal inhibitory concentration (IC50) and the limiting values was the maximal measured fluorescence polarization (ρ1) and the minimal fluorescence polarization (ρ2). Origin curve fitting software utilizes the Levenberg-Marquardt algorithm and reduced chi-square criterion for convergence. The inhibitor dissociation constant, Ki, was calculated from the derived IC50 values, as per the following formula: […]
Further details of the fluorescence polarization assay are as described previously (Zhang X, et al. (2010) A novel small-molecule disrupts Stat3 SH2domainphosphotyrosine interactions and Stat3-dependent tumor processes. Biochem Pharmacol 79: 1398-1409).
For the compound `Cc1ccc(S(=O)(=O)N(CC(=O)N(Cc2ccc(C3CCCCC3)cc2)c2ccc(C(=O)O)c(O)c2)Cc2ccccc2)cc1` [BP2-027], the Ki worked out at 7.2 ± 2.2 µM.
With `Cc1ccc(CN(CC(=O)N(Cc2ccc(C3CCCCC3)cc2)c2ccc(C(=O)O)c(O)c2)S(=O)(=O)c2ccc(C)cc2)cc1` [BP2-028] the figure was greater than 50 µM; with `Cc1ccc(S(=O)(=O)N2CCC[C@H]2C(=O)N(Cc2ccc(C3CCCCC3)cc2)c2ccc(C(=O)O)c(O)c2)cc1` [BP2-029], 33 ± 22 µM.
On to `Cc1ccc(S(=O)(=O)N2CCC[C@@H]2C(=O)N(Cc2ccc(C3CCCCC3)cc2)c2ccc(C(=O)O)c(O)c2)cc1` [BP2-032], for which the inhibition constant Ki was greater than 50 µM.
With `CCCN(CC(=O)N(Cc1ccc(C2CCCCC2)cc1)c1ccc(C(=O)O)c(O)c1)S(=O)(=O)c1ccc(C)cc1` [BP2-033], the Ki worked out at 8.9 ± 1.4 µM.
As for `Cc1ccc(S(=O)(=O)N(CC(=O)N(Cc2ccc(C3CCCCC3)cc2)c2ccc(C(=O)O)c(O)c2)CC(C)C)cc1` [BP2-046], the Ki worked out at 8.3 ± 0.3 µM.
The value for `Cc1ccc(S(=O)(=O)N(CC(=O)N(Cc2ccc(C3CCCCC3)cc2)c2ccc(C(=O)O)c(O)c2)Cc2ccccc2C)cc1` [BP2-047] was 2.6 ± 0.2 µM; that for `Cc1ccc(S(=O)(=O)N(CC(=O)N(Cc2ccc(C3CCCCC3)cc2)c2ccc(C(=O)O)c(O)c2)Cc2cccc(C)c2)cc1` [BP2-056] was 2.6 ± 0.2 µM.
The value for `Cc1ccc(S(=O)(=O)N(CC(=O)N(Cc2ccc(C3CCCCC3)cc2)c2ccc(C(=O)O)c(O)c2)Cc2ccc3ccccc3c2)cc1` [BP2-057] was 2.5 ± 1 µM; that for `Cc1ccc(S(=O)(=O)N(CC(=O)N(Cc2ccc(C3CCCCC3)cc2)c2ccc(C(=O)O)c(O)c2)Cc2ccccc2C(F)(F)F)cc1` [BP2-061] was 1.8 ± 2.3 µM.
`Cc1ccc(S(=O)(=O)N(CC(=O)N(Cc2ccc(C3CCCCC3)cc2)c2ccc(C(=O)O)c(O)c2)Cc2ccc(F)cc2)cc1` [BP2-065]: the inhibitory constant (Ki) amounted to 3.8 ± 1.6 µM.
For the compound `Cc1ccc(S(=O)(=O)N(CC(=O)N(Cc2ccc(C3CCCCC3)cc2)c2ccc(C(=O)O)c(O)c2)Cc2cccc(F)c2)cc1` [BP2-066], the inhibitory constant (Ki) was 4.4 ± 0.3 µM.
With `Cc1ccc(S(=O)(=O)N(CC(=O)N(Cc2ccc(C3CCCCC3)cc2)c2ccc(C(=O)O)c(O)c2)Cc2ccccc2F)cc1` [BP2-067] the figure was 5.3 ± 0.3 µM; with `Cc1ccc(S(=O)(=O)N(CC(=O)N(Cc2ccc(C3CCCCC3)cc2)c2ccc(C(=O)O)c(O)c2)Cc2c(F)c(F)c(F)c(F)c2F)cc1` [BP2-068], 4.5 ± 1.9 µM; with `Cc1ccc(S(=O)(=O)N(CC(=O)N(Cc2ccc(C3CCCCC3)cc2)c2ccc(C(=O)O)c(O)c2)Cc2ccncc2)cc1` [BP2-086], 23.3 ± 0.7 µM.
The value for `Cc1ccc(S(=O)(=O)N(CC(=O)N(Cc2ccc(C3CCCCC3)cc2)c2ccc(C(=O)O)c(O)c2)Cc2c(F)cc(F)c(F)c2F)cc1` [BP2-119] was 7.7 ± 1 µM; that for `Cc1ccc(S(=O)(=O)N(CC(=O)N(Cc2ccc(C3CCCCC3)cc2)c2ccc(C(=O)O)c(O)c2)Cc2cc(F)c(F)c(F)c2F)cc1` [BP2-120] was 11.1 ± 0.6 µM; that for `Cc1ccc(S(=O)(=O)N(CC(=O)N(Cc2ccc(C3CCCCC3)cc2)c2ccc(C(=O)O)c(O)c2)Cc2c(F)c(F)cc(F)c2F)cc1` [BP2-121] was 11.4 ± 0.4 µM.
In the case of `Cc1ccc(S(=O)(=O)N(CC(N)=O)CC(=O)N(Cc2ccc(C3CCCCC3)cc2)c2ccc(C(=O)O)c(O)c2)cc1` [BP2-124], the Ki stood at 48.7 ± 14.2 µM.
For the compound `C=CCN(CC(=O)N(Cc1ccc(C2CCCCC2)cc1)c1ccc(C(=O)O)c(O)c1)S(=O)(=O)c1ccc(C)cc1` [BP2-125], the Ki stood at 27.9 ± 5 µM.
The value for `Cc1ccc(S(=O)(=O)N(CC(=O)N(Cc2ccc(C3CCCCC3)cc2)c2ccc(C(=O)O)c(O)c2)Cc2cccnc2)cc1` [BP2-130] was 25.4 ± 0.8 µM.
With `Cc1ccc(S(=O)(=O)N(CC(=O)N(Cc2ccc(C3CCCCC3)cc2)c2ccc(C(=O)O)c(O)c2)Cc2ccccn2)cc1` [BP2-131] the figure was 22.6 ± 3 µM; with `Cc1ccc(S(=O)(=O)N(CC(=O)N(Cc2ccc(C3CCCCC3)cc2)c2ccc(C(=O)O)c(O)c2)Cc2ccc([N+](=O)[O-])cc2)cc1` [BP3-014], 5.5 ± 3.7 µM.
The value for `Cc1ccc(S(=O)(=O)N(CC(=O)N(Cc2ccc(C3CCCCC3)cc2)c2ccc(C(=O)O)c(O)c2)Cc2cccc(N)c2)cc1` [BP3-016] was 6.2 ± 1.6 µM.
For `Cc1ccc(S(=O)(=O)N(CC(=O)N(Cc2ccc(C3CCCCC3)cc2)c2ccc(C(=O)O)c(O)c2)Cc2ccccc2N)cc1` [BP3-018], the Ki was determined as 12 ± 0.5 µM.
Consider `Cc1ccc(S(=O)(=O)N(CC(=O)N(Cc2ccc(C3CCCCC3)cc2)c2ccc(C(=O)O)c(O)c2)Cc2cccc([N+](=O)[O-])c2)cc1` [BP3-019], for which the Ki amounted to 2.5 ± 2.2 µM.
Turning to `Cc1ccc(S(=O)(=O)N(CC(=O)N(Cc2ccc(C3CCCCC3)cc2)c2ccc(C(=O)O)c(O)c2)Cc2ccccc2[N+](=O)[O-])cc1` [BP3-020], the inhibition constant Ki was found to be 5 ± 6.5 µM.
For `Cc1ccc(S(=O)(=O)N(CC(=O)N(Cc2ccc(C3CCCCC3)cc2)c2ccc(C(=O)O)c(O)c2)Cc2ccc(C#N)cc2)cc1` [BP3-021], the inhibitory constant (Ki) stood at 4.3 ± 0.7 µM.
For the compound `Cc1ccc(S(=O)(=O)N(CC(=O)N(Cc2ccc(C3CCCCC3)cc2)c2ccc(C(=O)O)c(O)c2)Cc2cccc(C#N)c2)cc1` [BP3-023], the Ki is 6.2 ± 0.8 µM.
With `Cc1ccc(S(=O)(=O)N(CC(=O)N(Cc2ccc(C3CCCCC3)cc2)c2ccc(C(=O)O)c(O)c2)Cc2ccccc2C#N)cc1` [BP3-024] the figure was 11.3 ± 0.8 µM; with `Cc1ccc(S(=O)(=O)N(C)CC(=O)N(Cc2ccc(C3CCN(C(=O)OC(C)(C)C)CC3)cc2)c2ccc(C(=O)O)c(O)c2)cc1` [Compound 27KC, 4-(N-(4-(1-(tert-butoxycarbonyl)piperidin-4-yl)benzyl)-2-(N,4-dimethylphenylsulfon-amido)acetamido)-2-hydroxybenzoic acid], 18.7 ± 1.4 µM.
Regarding `Cc1ccc(S(=O)(=O)N(CC(=O)N(Cc2ccc(C3CCCCC3)cc2)c2ccc(C(=O)O)c(O)c2)Cc2ccc(Cl)cc2)cc1` [SH3-076], the inhibition constant Ki stood at 3.1 ± 0.1 µM.
The value for `Cc1ccc(S(=O)(=O)N(CC(=O)N(Cc2ccc(C3CCCCC3)cc2)c2ccc(C(=O)O)c(O)c2)Cc2cccc(Cl)c2)cc1` [SH3-077] was 3 ± 4.1 µM; that for `Cc1ccc(S(=O)(=O)N(CC(=O)N(Cc2ccc(C3CCCCC3)cc2)c2ccc(C(=O)O)c(O)c2)Cc2ccccc2Cl)cc1` [SH3-079] was 7.9 ± 0.3 µM; that for `CCOC(=O)c1ccc(CN(CC(=O)N(Cc2ccc(C3CCCCC3)cc2)c2ccc(C(=O)O)c(O)c2)S(=O)(=O)c2ccc(C)cc2)cc1` [XW1-053] was 3.8 ± 1.5 µM.
The value for `Cc1ccc(S(=O)(=O)N(CC(=O)N(Cc2ccc(C3CCCCC3)cc2)c2ccc(C(=O)O)c(O)c2)Cc2cccc(OC(F)(F)F)c2)cc1` [XW1-055] was 4 ± 1.1 µM; that for `Cc1ccc(S(=O)(=O)N(CC(=O)N(Cc2ccc(C3CCCCC3)cc2)c2ccc(C(=O)O)c(O)c2)Cc2ccc(SC(F)(F)F)cc2)cc1` [XW1-057] was 4.8 ± 0.6 µM; that for `Cc1ccc(S(=O)(=O)N(CC(=O)N(Cc2ccc(C3CCCCC3)cc2)c2ccc(C(=O)O)c(O)c2)Cc2ccc(C(F)(F)F)cc2)cc1` [XW1-059] was 4.6 ± 1.6 µM.
As to `Cc1ccc(S(=O)(=O)N(CC(=O)N(Cc2ccc(C3CCCCC3)cc2)c2ccc(C(=O)O)c(O)c2)Cc2ccccc2OC(F)(F)F)cc1` [XW1-061], the inhibition constant (Ki) is 3.6 ± 0.5 µM.
With `Cc1ccc(S(=O)(=O)N(CC(=O)N(Cc2ccc(C3CCCCC3)cc2)c2ccc(C(=O)O)c(O)c2)Cc2ccc(F)cc2C(F)(F)F)cc1` [XW1-075], the inhibition constant (Ki) came out at 5.5 ± 0.4 µM.
The value for `Cc1ccc(S(=O)(=O)N(CC(=O)N(Cc2ccc(C3CCCCC3)cc2)c2ccc(C(=O)O)c(O)c2)Cc2ccc(OC(F)(F)F)cc2)cc1` [XW1-077] was 5.9 ± 0.6 µM.
The value for `Cc1ccc(S(=O)(=O)N(CC(=O)N(Cc2ccc(C3CCCCC3)cc2)c2ccc(C(=O)O)c(O)c2)Cc2cccc(C(F)(F)F)c2)cc1` [XW1-079] was 5.1 ± 0.4 µM.
Regarding `COC(=O)c1cccc(CN(CC(=O)N(Cc2ccc(C3CCCCC3)cc2)c2ccc(C(=O)O)c(O)c2)S(=O)(=O)c2ccc(C)cc2)c1` [XW1-081], the Ki is 9.2 ± 0.8 µM.
With `COC(=O)c1ccc(CN(CC(=O)N(Cc2ccc(C3CCCCC3)cc2)c2ccc(C(=O)O)c(O)c2)S(=O)(=O)c2ccc(C)cc2)cc1` [XW1-083] the figure was 5.8 ± 0.6 µM.
